Values quoted from earlier work as cited in patent US20260232695A1, “ORAL FORMULATIONS OF ABIRATERONE ACETATE AND METHOD OF MANUFACTURING THEREOF” (BDR PHARMACEUTICALS INTERNATIONAL PRIVATE LIMITED, priority 2022, published 2026).

Settings: poor solubility in water and lower lipid permeability

Q: With `CC(=O)O[C@H]1CC[C@@]2(C)C(=CC[C@@H]3[C@@H]2CC[C@]2(C)C(c4cccnc4)=CC[C@@H]32)C1` [Abiraterone Acetate, 17-(pyridin-3-yl)androsta-5,16-dien-3β-yl acetate] as the compound, how does the BCS class read?
A: Class IV
